Assay results: PMC12260505, “First-in-Human Phase I/IIa Study of the First-in-Class CDK2/4/6 Inhibitor PF-06873600 Alone or with Endocrine Therapy in Patients with Breast Cancer” (Clinical Cancer Research, 2025)

Test: Adverse events graded by NCI CTCAE version 4.03, phase I/IIa study
Format: in vivo
Description: Part 1 included adult patients with HR^+/HER2^− advanced breast cancer or mBC (third- or fourth-line setting), locally recurrent/advanced or metastatic TNBC, or advanced platinum-resistant epithelial ovarian cancer/fallopian tube cancer/primary peritoneal cancer who received oral PF-06873600 at doses of 1 to 50 mg twice daily or oral PF-06873600 plus ET (letrozole or fulvestrant). Primary endpoints for part 1 dose escalation determined safety and tolerability to define dose-limiting toxicities (DLT), estimate the maximum tolerated dose, and select the recommended dose for expansion (RDE). Safety endpoints included adverse events (AE) characterized by type, frequency, severity [as graded by NCI Common Terminology Criteria for Adverse Events (CTCAE) version 4.03], timing, seriousness, and relationship to study therapy. Laboratory abnormalities were characterized by type, frequency, severity (as graded by NCI CTCAE version 4.03), timing, vital sign abnormalities, and heart rate–corrected QT interval (e.g., QTcF). Secondary endpoints included PK, preliminary antitumor activity as assessed using RECIST version 1.1, time-to-event endpoints including objective response rate (ORR), duration of response (DoR), progression-free survival (PFS), time to progression (TTP), and modulation of tumor CDK biomarkers [phosphorylated Rb (pRb), Ki67]. Exploratory endpoints included molecular profiling of tumor and ctDNA and the relationship to clinical outcome.
AEs were graded by NCI CTCAE version 4.03.

[1] = Part 2A 25 mg BID IR + Fulvestrant, N = 45
[2] = Part 2C 25 mg BID IR + Fulvestrant, N = 28

Compound: C[C@@]1(O)CCC[C@H]1n1c(=O)c(C(F)F)cc2cnc(NC3CCN(S(C)(=O)=O)CC3)nc21 [PF-06873600]
- Treatment-related TEAE, Abdominal pain, Grade 1 [1]: 7 (15.6) n (%)
- Treatment-related TEAE, Abdominal pain, Grade 2 [1]: 1 (2.2) n (%)
- Treatment-related TEAE, Abdominal pain, Grade 3/4 [1]: 0 n (%)
- Treatment-related TEAE, Abdominal pain, Grade 5 [1]: 0 n (%)
- Treatment-related TEAE, Abdominal pain, Total [1]: 8 (17.8) n (%)
- Treatment-related TEAE, Alopecia, Grade 1 [1]: 7 (15.6) n (%)
- Treatment-related TEAE, Alopecia, Grade 2 [1]: 9 (20.0) n (%)
- Treatment-related TEAE, Alopecia, Grade 3/4 [1]: 0 n (%)
- Treatment-related TEAE, Alopecia, Grade 5 [1]: 0 n (%)
- Treatment-related TEAE, Alopecia, Total [1]: 16 (35.6 ) n (%)
- Treatment-related TEAE, Anemia, Grade 1 [1]: 3 (6.7) n (%)
- Treatment-related TEAE, Anemia, Grade 2 [1]: 10 (22.2 ) n (%)
- Treatment-related TEAE, Anemia, Grade 3/4 [1]: 7 (15.6) n (%)
- Treatment-related TEAE, Anemia, Grade 5 [1]: 0 n (%)
- Treatment-related TEAE, Anemia, Total [1]: 20 (44.4 ) n (%)
- Treatment-related TEAE, Any adverse event, Grade 1 [1]: 9 (20.0) n (%)
- Treatment-related TEAE, Any adverse event, Grade 2 [1]: 17 (37.8 ) n (%)
- Treatment-related TEAE, Any adverse event, Grade 3/4 [1]: 19 (42.2 ) n (%)
- Treatment-related TEAE, Any adverse event, Grade 5 [1]: 0 n (%)
- Treatment-related TEAE, Any adverse event, Total [1]: 45 (100. 0) n (%)
- Treatment-related TEAE, Constipation, Grade 1 [1]: 4 (8.9) n (%)
- Treatment-related TEAE, Constipation, Grade 2 [1]: 5 (11.1) n (%)
- Treatment-related TEAE, Constipation, Grade 3/4 [1]: 0 n (%)
- Treatment-related TEAE, Constipation, Grade 5 [1]: 0 n (%)
- Treatment-related TEAE, Constipation, Total [1]: 9 (20.0) n (%)
- Treatment-related TEAE, Decreased appetite, Grade 1 [1]: 6 (13.3) n (%)
- Treatment-related TEAE, Decreased appetite, Grade 2 [1]: 1 (2.2) n (%)
- Treatment-related TEAE, Decreased appetite, Grade 3/4 [1]: 0 n (%)
- Treatment-related TEAE, Decreased appetite, Grade 5 [1]: 0 n (%)
- Treatment-related TEAE, Decreased appetite, Total [1]: 7 (15.6) n (%)
- Treatment-related TEAE, Diarrhea, Grade 1 [1]: 7 (15.6) n (%)
- Treatment-related TEAE, Diarrhea, Grade 2 [1]: 1 (2.2) n (%)
- Treatment-related TEAE, Diarrhea, Grade 3/4 [1]: 2 (4.4) n (%)
- Treatment-related TEAE, Diarrhea, Grade 5 [1]: 0 n (%)
- Treatment-related TEAE, Diarrhea, Total [1]: 10 (22.2 ) n (%)
- Treatment-related TEAE, Dizziness, Grade 1 [1]: 6 (13.3) n (%)
- Treatment-related TEAE, Dizziness, Grade 2 [1]: 2 (4.4) n (%)
- Treatment-related TEAE, Dizziness, Grade 3/4 [1]: 0 n (%)
- Treatment-related TEAE, Dizziness, Grade 5 [1]: 0 n (%)
- Treatment-related TEAE, Dizziness, Total [1]: 8 (17.8) n (%)
- Treatment-related TEAE, Fatigue, Grade 1 [1]: 10 (22.2 ) n (%)
- Treatment-related TEAE, Fatigue, Grade 2 [1]: 13 (28.9 ) n (%)
- Treatment-related TEAE, Fatigue, Grade 3/4 [1]: 5 (11.1) n (%)
- Treatment-related TEAE, Fatigue, Grade 5 [1]: 0 n (%)
- Treatment-related TEAE, Fatigue, Total [1]: 28 (62.2 ) n (%)
- Treatment-related TEAE, Headache, Grade 1 [1]: 12 (26.7 ) n (%)
- Treatment-related TEAE, Headache, Grade 2 [1]: 4 (8.9) n (%)
- Treatment-related TEAE, Headache, Grade 3/4 [1]: 0 n (%)
- Treatment-related TEAE, Headache, Grade 5 [1]: 0 n (%)
- Treatment-related TEAE, Headache, Total [1]: 16 (35.6 ) n (%)
- Treatment-related TEAE, Leukopenia, Grade 1 [1]: 1 (2.2) n (%)
- Treatment-related TEAE, Leukopenia, Grade 2 [1]: 8 (17.8) n (%)
- Treatment-related TEAE, Leukopenia, Grade 3/4 [1]: 2 (4.4) n (%)
- Treatment-related TEAE, Leukopenia, Grade 5 [1]: 0 n (%)
- Treatment-related TEAE, Leukopenia, Total [1]: 11 (24.4 ) n (%)
- Treatment-related TEAE, Nausea, Grade 1 [1]: 22 (48.9 ) n (%)
- Treatment-related TEAE, Nausea, Grade 2 [1]: 6 (13.3) n (%)
- Treatment-related TEAE, Nausea, Grade 3/4 [1]: 1 (2.2) n (%)
- Treatment-related TEAE, Nausea, Grade 5 [1]: 0 n (%)
- Treatment-related TEAE, Nausea, Total [1]: 29 (64.4 ) n (%)
- Treatment-related TEAE, Neutropenia, Grade 1 [1]: 4 (8.9) n (%)
- Treatment-related TEAE, Neutropenia, Grade 2 [1]: 5 (11.1) n (%)
- Treatment-related TEAE, Neutropenia, Grade 3/4 [1]: 13 (28.9 ) n (%)
- Treatment-related TEAE, Neutropenia, Grade 5 [1]: 0 n (%)
- Treatment-related TEAE, Neutropenia, Total [1]: 22 (48.9 ) n (%)
- Treatment-related TEAE, Thrombocytopenia, Grade 1 [1]: 5 (11.1) n (%)
- Treatment-related TEAE, Thrombocytopenia, Grade 2 [1]: 2 (4.4) n (%)
- Treatment-related TEAE, Thrombocytopenia, Grade 3/4 [1]: 3 (6.7) n (%)
- Treatment-related TEAE, Thrombocytopenia, Grade 5 [1]: 0 n (%)
- Treatment-related TEAE, Thrombocytopenia, Total [1]: 10 (22.2 ) n (%)
- Treatment-related TEAE, Vomiting, Grade 1 [1]: 12 (26.7 ) n (%)
- Treatment-related TEAE, Vomiting, Grade 2 [1]: 3 (6.7) n (%)
- Treatment-related TEAE, Vomiting, Grade 3/4 [1]: 1 (2.2) n (%)
- Treatment-related TEAE, Vomiting, Grade 5 [1]: 0 n (%)
- Treatment-related TEAE, Vomiting, Total [1]: 16 (35.6 ) n (%)
- Treatment-related TEAE, Abdominal pain, Grade 1 [2]: 0 n (%)
- Treatment-related TEAE, Abdominal pain, Grade 2 [2]: 0 n (%)
- Treatment-related TEAE, Abdominal pain, Grade 3/4 [2]: 0 n (%)
- Treatment-related TEAE, Abdominal pain, Grade 5 [2]: 0 n (%)
- Treatment-related TEAE, Abdominal pain, Total [2]: 0 n (%)
- Treatment-related TEAE, Alopecia, Grade 1 [2]: 6 (21.4) n (%)
- Treatment-related TEAE, Alopecia, Grade 2 [2]: 2 (7.1) n (%)
- Treatment-related TEAE, Alopecia, Grade 3/4 [2]: 0 n (%)
- Treatment-related TEAE, Alopecia, Grade 5 [2]: 0 n (%)
- Treatment-related TEAE, Alopecia, Total [2]: 8 (28.6) n (%)
- Treatment-related TEAE, Anemia, Grade 1 [2]: 4 (14.3) n (%)
- Treatment-related TEAE, Anemia, Grade 2 [2]: 3 (10.7) n (%)
- Treatment-related TEAE, Anemia, Grade 3/4 [2]: 3 (10.7) n (%)
- Treatment-related TEAE, Anemia, Grade 5 [2]: 0 n (%)
- Treatment-related TEAE, Anemia, Total [2]: 10 (35.7 ) n (%)
- Treatment-related TEAE, Any adverse event, Grade 1 [2]: 7 (25.0) n (%)
- Treatment-related TEAE, Any adverse event, Grade 2 [2]: 8 (28.6) n (%)
- Treatment-related TEAE, Any adverse event, Grade 3/4 [2]: 8 (28.6) n (%)
- Treatment-related TEAE, Any adverse event, Grade 5 [2]: 1 (3.6) n (%)
- Treatment-related TEAE, Any adverse event, Total [2]: 24 (85.7 ) n (%)
- Treatment-related TEAE, Constipation, Grade 1 [2]: 1 (3.6) n (%)
- Treatment-related TEAE, Constipation, Grade 2 [2]: 2 (7.1) n (%)
- Treatment-related TEAE, Constipation, Grade 3/4 [2]: 0 n (%)
- Treatment-related TEAE, Constipation, Grade 5 [2]: 0 n (%)
- Treatment-related TEAE, Constipation, Total [2]: 3 (10.7) n (%)
- Treatment-related TEAE, Decreased appetite, Grade 1 [2]: 2 (7.1) n (%)
- Treatment-related TEAE, Decreased appetite, Grade 2 [2]: 0 n (%)
- Treatment-related TEAE, Decreased appetite, Grade 3/4 [2]: 0 n (%)
- Treatment-related TEAE, Decreased appetite, Grade 5 [2]: 0 n (%)
- Treatment-related TEAE, Decreased appetite, Total [2]: 2 (7.1) n (%)
- Treatment-related TEAE, Diarrhea, Grade 1 [2]: 4 (14.3) n (%)
- Treatment-related TEAE, Diarrhea, Grade 2 [2]: 1 (3.6) n (%)
- Treatment-related TEAE, Diarrhea, Grade 3/4 [2]: 0 n (%)
- Treatment-related TEAE, Diarrhea, Grade 5 [2]: 0 n (%)
- Treatment-related TEAE, Diarrhea, Total [2]: 5 (17.9) n (%)
- Treatment-related TEAE, Dizziness, Grade 1 [2]: 0 n (%)
- Treatment-related TEAE, Dizziness, Grade 2 [2]: 1 (3.6) n (%)
- Treatment-related TEAE, Dizziness, Grade 3/4 [2]: 0 n (%)
- Treatment-related TEAE, Dizziness, Grade 5 [2]: 0 n (%)
- Treatment-related TEAE, Dizziness, Total [2]: 1 (3.6) n (%)
- Treatment-related TEAE, Fatigue, Grade 1 [2]: 7 (25.0) n (%)
- Treatment-related TEAE, Fatigue, Grade 2 [2]: 0 n (%)
- Treatment-related TEAE, Fatigue, Grade 3/4 [2]: 2 (7.1) n (%)
- Treatment-related TEAE, Fatigue, Grade 5 [2]: 0 n (%)
- Treatment-related TEAE, Fatigue, Total [2]: 9 (32.1) n (%)
- Treatment-related TEAE, Headache, Grade 1 [2]: 9 (32.1) n (%)
- Treatment-related TEAE, Headache, Grade 2 [2]: 0 n (%)
